Experimental data reported in US20220062233A1 (The Board of Trustees of the Leland Stanford Junior …, priority 2018, published 2022).

Tests used:
[1] = target: T1, interaction between Supt4h and NGN (subunit of Supt5h) (Homo sapiens, UniProt O00267+P63272); assay: Split Gaussia luciferase complementation assay (M2-8 Luciferase); type: cell-based; conditions: M2-8 cells
T1 construct: expressed in transfected cells
How it was run: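 HEK293-derived M2-8 cells inducibly express Supt4h-Gluc1 and NGN-Gluc2 fragments (stabilizing mutations) on RheoSwitch ligand addition; ligand plus compound added 24 h after plating and left 24 h. Cells frozen, lysed with 10 μg/ml native coelenterazine, 1 h room temperature dark; complemented luciferase luminescence read.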

[2] = tested on: M2-8 cells; assay: M2-8 Cell viability Assay; type: cell-based; conditions: at the concentration of 1000 nM
[3] = tested on: mutant HTT; assay: Mutant HTT assay in lymphoblastoid cells (LBC), Western blot; type: cell-based, human; conditions: read-out: LBC IC20 (nM) mHTT, 3 days compound treatment
Description: (§1) B. Mutant and Wild-Type HTT Assay in Lymphoblastoid Cells (LBC)
(§2) a. Cell Culturing and Compound Treatment
(§3) Lymphoblastoid cells derived from a Huntington's disease patient with 250 CAG repeats in the mutant HTT allele (GM14044 from Coriell Institute) were cultured in RPMI 1640 (Corning Cellgro, 10-040-CV) containing fetal bovine serum (Atlanta Biologicals, S11150). 4×10^5 cells were seeded on a 24-well plate and incubated with testing compound for 3 days. The cell suspension was then transferred to a 1.5 ml Eppendorf tube. Cells were collected by centrifugation and washed once with PBS. After all liquid was removed, the cell pellet was placed at −80° C. for at least 10 minutes. Lysis buffer [30 mM Tris-HCl (pH 8.0), 5 mM NaCl, 0.1% Triton X-100] with the proteinase inhibitor cocktail (P8340 from Sigma-Aldrich) was then added to the cells. Following centrifugation (14 k rpm for 15 min at 4° C.), the supernatant was collected. The protein concentrations were determined by BCA assay (Pierce, ThermoFisher).
(§4) Equal amounts of protein were loaded onto 4-12% gel (Invitrogen, WG1403A). After electrophoresis, the gels were transferred to nitrocellulose membranes by wet transfer at 72V for 3 hrs. […] The protein levels of mutant HTT, wild-type HTT, TBP, and tubulin were determined by immunoblotting with anti-polyQ specific antibody (clone MW1), anti-Huntingtin antibody (Abcam, ab45169), anti-TBP antibody (Sigma, T1827) and anti-alpha tubulin antibody (Sigma, T9026). Blots were imaged on a Li-Cor Odyssey infrared imager. The band intensities were determined by Li-Cor Odyssey software.

[4] = tested on: wild-type HTT; assay: Wild-type HTT assay in lymphoblastoid cells (LBC), Western blot; type: cell-based, human; conditions: 3 days compound treatment, read-out: LBC IC20 (nM) wtHTT
Description: as §1, §2, §3, §4

[5] = tested on: Lymphoblastoid cells (GM14044); assay: LBC cell viability (Cell Titer-Glo); type: cell-based, human; conditions: at the concentration of IC20, 3-day compound treatment
Description: Cell viability was determined by Cell Titer-Glo reagent (Promega, PRG9243). After 3-day compound treatment, 15 μl of cell suspension was taken out from plate and incubated with 10 μl of CTG reagent. The values of reaction mixture were detected by Tecan.

[6] = tested on: mutant HTT; assay: Mutant HTT assay in induced pluripotent stem cells (iPSC); type: cell-based, human; conditions: HD patient iPSCs, one day incubation, read-out: iPSC IC20 (nM) mHTT
Description: C. Mutant HTT Assay in Induced Pluripotent Stem Cells (iPSC) a. Cell Culturing and Compound Treatment
Huntington's disease patient iPSCs (ND50036 from NINDS) were detached into single cells by Accutase (25058CI from Corning), counted and plated on a 24-well plate coated with Matrigel (354277 from Corning) at density of 7,000 cells/well. After 48 hrs, compounds were added to the cell culture medium mTeSR1 (85850 from StemCell Technologies) and the cells were incubated for one day. The medium was then removed, and the cells were washed with PBS. After all liquid was removed, the plate was placed at −80° C. overnight. Lysis buffer [30 mM Tris-HCl (pH 8.0), 5 mM NaCl, 0.1% Triton X-100] with the complete proteinase inhibitor cocktail (5892791001 from Sigma-Aldrich) was then added to the cells. Cell samples were lysed on an orbital plate shaker at 4° C. at 700 rpm for 30 min. The supernatants from spinning (14 k rpm for 10 min) were collected. The protein concentrations were determined by BCA assay (23225 from Pierce, ThermoFisher). […]
b. Detection of Mutant HTT Protein
Equal amounts of protein lysate collected from each sample were added to a 96-well plate that had been coated with a human HTT specific monoclonal antibody. After washing away any unbound substances, a biotinylated anti-human mutant HTT specific detection antibody was added. Streptavidin-horseradish peroxidase was subsequently added, followed by TMB Substrate Solution, which yielded a blue product that turns yellow when the Stop Solution was added. The intensity of the color measured was in proportion to the amount of mutant HTT bound in the initial step. The mutant HTT values are then interpolated from a standard curve.

[7] = tested on: Huntington's disease patient iPSCs (ND50036); assay: iPSC viability at IC20; type: cell-based, human; conditions: at the concentration of IC20

Compound | IC50 [1] | M2-8 Cell viability [2] | IC20 [3] | IC20 [4] | LBC viability at IC20 [5] | IC20 ([6]; class symbols) | iPSC viability at IC20 [7] | IC20 ([6]; numeric bounds)
C[C@H](N[C@@H]1CCCc2c1[nH]c1ccc(Br)cc21)c1ccccc1 (single isomer, unassigned) [Compound 14] | ≤ 100 nM | + (cell viability is greater than 50% at the concentration of 1000 nM) | < 100 nM | > 1000 nM | * (cell viability is greater than 60% at the concentration of IC20) | < 100 nM | + (cell viability is greater than 75% at the concentration of IC20) | –
OCc1ccc(CN[C@@H]2CCCc3c2[nH]c2ccc(Br)nc32)cc1 [Compound 65] | ≤ 100 nM | + (cell viability is greater than 50% at the concentration of 1000 nM) | 301 to 1000 nM | > 1000 nM | * (cell viability is greater than 60% at the concentration of IC20) | < 100 nM | + (cell viability is greater than 75% at the concentration of IC20) | –
Brc1ccc2[nH]c3c(c2n1)CCC[C@H]3NCc1ccccc1 [Compound 69] | ≤ 100 nM | + (cell viability is greater than 50% at the concentration of 1000 nM) | – | – | – | < 100 nM | + (cell viability is greater than 75% at the concentration of IC20) | –
OC1(c2ccc(CN[C@@H]3CCCc4c3[nH]c3ccc(Br)nc43)cc2)CC1 [Compound 71] | ≤ 100 nM | + (cell viability is greater than 50% at the concentration of 1000 nM) | – | – | – | < 100 nM | + (cell viability is greater than 75% at the concentration of IC20) | –
COC(C)(C)c1ccc(CN[C@@H]2CCCc3c2[nH]c2ccc(Br)cc32)cc1 [Compound 48, (R)-6-bromo-N-(4-(2-methoxypropan-2-yl)benzyl)-2,3,4,9-tetrahydro-1H-carbazol-1-amine] | ≤ 100 nM | + (cell viability is greater than 50% at the concentration of 1000 nM) | < 100 nM | > 500 nM | * (cell viability is greater than 60% at the concentration of IC20) | < 100 nM | + (cell viability is greater than 75% at the concentration of IC20) | –
COCC(N[C@@H]1CCCc2c1[nH]c1ccc(Br)cc21)c1ccc(C(C)(C)O)cc1 (single isomer, unassigned) [Compound 52] | ≤ 100 nM | + (cell viability is greater than 50% at the concentration of 1000 nM) | < 100 nM | > 500 nM | * (cell viability is greater than 60% at the concentration of IC20) | < 100 nM | + (cell viability is greater than 75% at the concentration of IC20) | –
OC1(c2ccc(CN[C@@H]3CCCc4c3[nH]c3ccc(Br)cc43)cc2)CC1 [Compound 50, (R)-1-(4-(((6-bromo-2,3,4,9-tetrahydro-1H-carbazol-1-yl)amino)methyl)phenyl) cyclopropan-1-ol] | ≤ 100 nM | + (cell viability is greater than 50% at the concentration of 1000 nM) | < 100 nM | > 500 nM | * (cell viability is greater than 60% at the concentration of IC20) | < 100 nM | + (cell viability is greater than 75% at the concentration of IC20) | –
OC1(c2ccc(CN[C@@H]3CCCc4c3[nH]c3ccc(Br)nc43)s2)CC1 [Compound 70] | ≤ 100 nM | + (cell viability is greater than 50% at the concentration of 1000 nM) | – | – | – | < 100 nM | + (cell viability is greater than 75% at the concentration of IC20) | –
Brc1ccc2[nH]c3c(c2c1)CCC[C@H]3NCc1cccnc1 [Compound 32, (R)-6-bromo-N-(pyridin-3-ylmethyl)-2,3,4,9-tetrahydro-1H-carbazol-1-amine] | 101 to 300 nM | + (cell viability is greater than 50% at the concentration of 1000 nM) | < 100 nM | > 1000 nM | * (cell viability is greater than 60% at the concentration of IC20) | – | – | > 100 nM
